The values below come from patent US20060211765A1, “Novel compounds” (ASTRAZENECA AB, priority 2003, published 2006).

The target of the assay is T1, rhCRTh2 (Homo sapiens, UniProt Q9Y5Y4).
T1 construct: expressed in transfected cells; host or cells: HEK cells (membrane preparation)
T1 sequence (Q9Y5Y4 1-395): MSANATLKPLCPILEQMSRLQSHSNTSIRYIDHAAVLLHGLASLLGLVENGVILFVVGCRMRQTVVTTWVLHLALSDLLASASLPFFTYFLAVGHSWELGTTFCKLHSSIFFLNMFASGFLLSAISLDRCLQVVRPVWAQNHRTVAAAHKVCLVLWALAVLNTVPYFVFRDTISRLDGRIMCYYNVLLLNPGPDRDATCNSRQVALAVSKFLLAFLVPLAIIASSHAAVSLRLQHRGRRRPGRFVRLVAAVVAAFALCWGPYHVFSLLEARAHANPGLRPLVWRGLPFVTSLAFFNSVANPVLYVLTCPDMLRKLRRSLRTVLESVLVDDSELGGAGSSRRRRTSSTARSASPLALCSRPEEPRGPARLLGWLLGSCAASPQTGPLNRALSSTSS
Description: Ligand Binding Assay ([3H]PGD2 SPA on HEK cell membranes). Particulars: [3H]PGD2 displacement, HEK cell membranes expressing rhCRTh2/Gα16, SPA beads. The method, then: [^3H]PGD2 was purchased from Perkin Elmer Life Sciences with a specific activity of 100-210 Ci/mmol. All other chemicals were of analytical grade.
HEK cells expressing rhCRTh2/Gα16 were routinely maintained in DMEM containing 10% Foetal Bovine Serum (HyClone), 1 mg/ml geneticin, 2 mM L-glutamine and 1% non-essential amino acids. For the preparation of membranes, the adherent transfected HEKcells were grown to confluence in two layer tissue culture factories (Fisher, catalogue number TKT-170-070E). Maximal levels of receptor expression were induced by addition of […] sodium butyrate for the last 18 hours of culture. […] The final pellet was re-suspended in 4 ml of membrane homogenisation buffer per cell factory used and the protein content determined. […]
All assays were performed in Corning clear bottomed, white 96-well NBS plates (Fisher). […] (The optimum coating concentrations were determined for each batch of membranes) The beads were pelleted by centrifugation (800×g for 7 minutes at 4° C.), washed once with assay buffer (50 mM HEPES pH 7.4 containing 5 mM magnesium chloride) and finally re-suspended in assay buffer at a bead concentration of 10 mg/ml. […]

`CCS(=O)(=O)c1ccc(-c2cc(OC)ccc2OCC(=O)O)cc1` [Example 3, {[4′-(Ethylsulfonyl)-5-methoxybiphenyl-2-yl]oxy}acetic acid] gave an IC50 of 251 nM.

With `CCc1ccc(OCC(=O)O)c(-c2ccc(S(C)(=O)=O)cc2)c1` [Example 2, {[5-Ethyl-4′-(methylsulfonyl)biphenyl-2-yl]oxy}acetic acid], the IC50 is 79.4 nM.

In general, IC50 refers to the concentration that gives 50% inhibition. A higher IC50 goes with weaker potency in that assay.
